From US20230136562A1, “SPIROUREA DERIVATIVES” (Idorsia Pharmaceuticals Ltd, priority 2020, published 2023)
Read-outs that look alike come from different tables or passages of the source.

System: primary neuronal cultures from embryonic rat brains
Experiment: Rat oscillation assay (FLIPR, neuronal calcium oscillations)
Type: cell-based
Settings: Rattus norvegicus
How it was run: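 Cortical neurons from E18 Wistar rat embryos, cultured 8–10 days at high density, loaded with 1 μM Fluo-8 AM; calcium oscillations recorded by FLIPR once per second in Mg-free HBSS with 2 mM CaCl2, 20 mM HEPES, pH 7.4. Two acquisitions ("Acute", 500 sec, compound added at 250 sec; "20 min"), ± Kv7 blocker XE-991.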

[1] = 20 min, AUC of fluorescence measured 20 min after compound addition, read-out: FLIPR: IC50 [nM] 20 min
[2] = Acute phase, ratio of AUC fluorescence before and after compound addition, read-out: FLIPR: IC50 [nM] acute

| SMILES | IC50 [1] [nM] | IC50 [2] [nM] |
| --- | --- | --- |
| O=C(NCc1cccc(C(F)(F)F)c1)NC1CC2(CC2)C1 [Example 2, 1-Spiro[2.3]hex-5-yl-3-(3-trifluoromethyl-benzyl)-urea] | 86 | 63 |
| O=C(NC1CC2(CC2)C1)N[C@@H](CO)c1cccc(C(F)(F)F)c1 (single isomer, unassigned) [Example 186] | 40 | 20 |
| O=C(NCc1cc(OCC(F)(F)F)ncn1)NC1CC2(CCC2)C1 [Example 59, 1-Spiro[3.3]hept-2-yl-3-[6-(2,2,2-trifluoro-ethoxy)-pyrimidin-4-ylmethyl]-urea] | 61 | 45 |
